{"source": "ChEMBL document CHEMBL5365479", "about": "“Development of Potent and Selective Coactivator-Associated Arginine Methyltransferase 1 (CARM1) Degraders” (J Med Chem, 2023)", "system": "MCF-10A", "assay": "Cytotoxicity against human MCF-10A cells assessed as reduction in cell viability at 0.5 uM incubated for 7 days by high contrast bright field microscopic analysis", "assay_type": "toxicity, cell-based", "conditions": "168 h, time 7 day"}
{"smiles": "CNCCN1CCC(c2cc(CN(C)C(=O)c3cccc(Oc4ccc(OCC(=O)N5CCC(CN6CCC(CN7CCN(CC(=O)N[C@H](C(=O)N8C[C@H](O)C[C@H]8C(=O)N[C@@H](C)c8ccc(-c9scnc9C)cc8)C(C)(C)C)CC7)CC6)CC5)cc4)c3)ccn2)CC1", "values": [{"measurement": "Activity", "value": "Non-Toxic"}]}
